This assay has as its target human APJ receptor (Homo sapiens (Human), UniProt P35414). In words: Intracellular cAMP accumulation assay (APJ hcAMP, HTRF). It counts as cell-based. The settings on record: HEK293 cells stably expressing human APJ receptor, inhibition of forskolin-mediated cAMP production. A digest of the protocol:
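HEK293 cells stably expressing human APJ, 5,000 per well, exposed to compound with […] IBMX and 2 μM forskolin for 30 minutes at room temperature. cAMP measured by HTRF after lysis and 60 min detection incubation. EC50 from sigmoidal variable-slope fits of inhibition of forskolin-induced cAMP, quantified against a cAMP standard curve.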

Setting [1] is: read-out: hAPJ cAMP EC50 Potency range.

Each structure is given as a SMILES string. Read-outs that look alike come from different tables or passages of the source.

Chain of human APJ receptor (P35414 whole entry): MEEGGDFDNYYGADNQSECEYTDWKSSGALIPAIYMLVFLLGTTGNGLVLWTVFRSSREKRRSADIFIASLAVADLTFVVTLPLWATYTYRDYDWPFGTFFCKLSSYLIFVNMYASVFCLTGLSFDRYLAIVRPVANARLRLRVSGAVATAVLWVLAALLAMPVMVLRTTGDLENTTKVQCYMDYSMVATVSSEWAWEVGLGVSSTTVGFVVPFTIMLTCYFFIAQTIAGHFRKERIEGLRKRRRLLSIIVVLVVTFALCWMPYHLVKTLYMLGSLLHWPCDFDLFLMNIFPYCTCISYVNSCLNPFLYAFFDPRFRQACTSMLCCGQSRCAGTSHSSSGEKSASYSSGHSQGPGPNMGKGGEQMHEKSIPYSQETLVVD

With `CCCCc1nc(O)c(-c2nnc(CC(=O)NCc3ccccn3)o2)c(O)c1-c1c(OC)cccc1OC` [Example 178, 2-{5-[6-butyl-5-(2,6-dimethoxyphenyl)-2,4-dihydroxypyridin-3-yl]-1,3,4-oxadiazol-2-yl}-N-(pyridin-2-ylmethyl)acetamide], the half-maximal effective concentration (EC50) under setting [1] was 10 to 100 nM.

Turning to `CCCCc1nc(O)c(-c2nnc(CC(=O)NC)o2)c(O)c1-c1c(OC)cccc1OC` [Example 179, 2-{5-[6-butyl-5-(2,6-dimethoxyphenyl)-2,4-dihydroxypyridin-3-yl]-1,3,4-oxadiazol-2-yl}-N-methylacetamide], the EC50 under setting [1] is 0.01 to 10 nM.

For the compound `CCCCc1nc(O)c(-c2nnc(CC(N)=O)o2)c(O)c1-c1c(OC)cccc1OC` [Example 180, 2-{5-[6-butyl-5-(2,6-dimethoxyphenyl)-2,4-dihydroxypyridin-3-yl]-1,3,4-oxadiazol-2-yl}acetamide], the EC50 under setting [1] was in the range of 10 to 100 nM.

For the compound `CCCCc1nc(O)c(-c2nnc(CC(=O)NC(C)C)o2)c(O)c1-c1c(OC)cccc1OC` [Example 181, 2-{5-[6-butyl-5-(2,6-dimethoxyphenyl)-2,4-dihydroxypyridin-3-yl]-1,3,4-oxadiazol-2-yl}-N-(propan-2-yl)acetamide], the EC50 under setting [1] was 0.01 to 10 nM.

For the compound `CCCCc1nc(O)c(-c2nnc(CC(=O)N(C)C)o2)c(O)c1-c1c(OC)cccc1OC` [Example 182, 2-{5-[6-butyl-5-(2,6-dimethoxyphenyl)-2,4-dihydroxypyridin-3-yl]-1,3,4-oxadiazol-2-yl}-N,N-dimethylacetamide], the EC50 under setting [1] is 0.01 to 10 nM.

Turning to `CCCCc1nc(O)c(-c2nnc(CC(=O)Nc3ccc(OC)cc3)o2)c(O)c1-c1c(OC)cccc1OC` [Example 183, 2-{5-[6-butyl-5-(2,6-dimethoxyphenyl)-2,4-dihydroxypyridin-3-yl]-1,3,4-oxadiazol-2-yl}-N-(4-methoxyphenyl) acetamide], the EC50 under setting [1] was in the range of 10 to 100 nM.

With `CCCCc1nc(O)c(-c2nnc(CC(=O)N3CCNC(=O)C3)o2)c(O)c1-c1c(OC)cccc1OC` [Example 184, 4-(2-{5-[6-butyl-5-(2,6-dimethoxyphenyl)-2,4-dihydroxypyridin-3-yl]-1,3,4-oxadiazol-2-yl}acetyl) piperazin-2-one], under setting [1], the EC50 is 0.01 to 10 nM.

The compound `CCCCc1nc(O)c(-c2nnc(CC(=O)N3CCN(C)CC3)o2)c(O)c1-c1c(OC)cccc1OC` [Example 185, 2-{5-[6-butyl-5-(2,6-dimethoxyphenyl)-2,4-dihydroxypyridin-3-yl]-1,3,4-oxadiazol-2-yl}-1-(4-methylpiperazin-1-yl)ethan-1-one] yielded an EC50 (hAPJ cAMP EC50 Potency range (nM)) of 10 to 100 nM.

For `CCCCc1nc(O)c(-c2nnc(CC(=O)NCc3ccccc3)o2)c(O)c1-c1c(OC)cccc1OC` [Example 186, N-benzyl-2-{5-[6-butyl-5-(2,6-dimethoxyphenyl)-2,4-dihydroxypyridin-3-yl]-1,3,4-oxadiazol-2-yl}acetamide], the EC50 under setting [1] lay in the range of 0.01 to 10 nM.

Take `CCCCc1nc(O)c(-c2nnc(CC(=O)NCC)o2)c(O)c1-c1c(OC)cccc1OC` [Example 187, 2-{5-[6-butyl-5-(2,6-dimethoxyphenyl)-2,4-dihydroxypyridin-3-yl]-1,3,4-oxadiazol-2-yl}-N-ethylacetamide]: the concentration giving a half-maximal response (EC50) under setting [1] fell in the range of 0.01 to 10 nM.

For `CCCCc1nc(O)c(-c2nnc(CC(=O)NC3CC3)o2)c(O)c1-c1c(OC)cccc1OC` [Example 188, 2-{5-[6-butyl-5-(2,6-dimethoxyphenyl)-2,4-dihydroxypyridin-3-yl]-1,3,4-oxadiazol-2-yl}-N-cyclo-propylacetamide], the EC50 under setting [1] was in the range of 0.01 to 10 nM.

Turning to `CCCCc1nc(O)c(-c2nnc(CC(=O)NCCC)o2)c(O)c1-c1c(OC)cccc1OC` [Example 189, 2-{5-[6-butyl-5-(2,6-dimethoxyphenyl)-2,4-dihydroxypyridin-3-yl]-1,3,4-oxadiazol-2-yl}-N-propylacetamide], under setting [1], the EC50 fell in the range of 0.01 to 10 nM.

On to `CCCCc1nc(O)c(-c2nnc(CC(=O)NCCF)o2)c(O)c1-c1c(OC)cccc1OC` [Example 190, 2-{5-[6-butyl-5-(2,6-dimethoxyphenyl)-2,4-dihydroxypyridin-3-yl]-1,3,4-oxadiazol-2-yl}-N-(2-fluoroethyl) acetamide], for which the EC50 under setting [1] was 0.01 to 10 nM.

Regarding `CCCCc1nc(O)c(-c2nnc(CC(=O)NCC(F)F)o2)c(O)c1-c1c(OC)cccc1OC` [Example 191, 2-{5-[6-butyl-5-(2,6-dimethoxyphenyl)-2,4-dihydroxypyridin-3-yl]-1,3,4-oxadiazol-2-yl}-N-(2,2-difluoroethyl) acetamide], under setting [1], the EC50 fell in the range of 0.01 to 10 nM.

For `CCCCc1nc(O)c(-c2nnc(CC(=O)NCC(F)(F)F)o2)c(O)c1-c1c(OC)cccc1OC` [Example 192, 2-{5-[6-butyl-5-(2,6-dimethoxyphenyl)-2,4-dihydroxypyridin-3-yl]-1,3,4-oxadiazol-2-yl}-N-(2,2,2-trifluoroethyl) acetamide], under setting [1], the EC50 fell in the range of 0.01 to 10 nM.

As for `CCCCc1nc(O)c(-c2nnc(CC(=O)NCCOC)o2)c(O)c1-c1c(OC)cccc1OC` [Example 193, 2-{5-[6-butyl-5-(2,6-dimethoxyphenyl)-2,4-dihydroxypyridin-3-yl]-1,3,4-oxadiazol-2-yl}-N-(2-methoxyethyl) acetamide], the EC50 under setting [1] fell in the range of 10 to 100 nM.

Turning to `CCCCc1nc(O)c(-c2nnc(CC(=O)N3CCCC3)o2)c(O)c1-c1c(OC)cccc1OC` [Example 194, 2-{5-[6-butyl-5-(2,6-dimethoxyphenyl)-2,4-dihydroxypyridin-3-yl]-1,3,4-oxadiazol-2-yl}-1-(pyrrolidin-1-yl)ethan-1-one], under setting [1], the EC50 lay within 0.01 to 10 nM.

As for `CCCCc1nc(O)c(-c2nnc(CC(=O)N3CCCCC3)o2)c(O)c1-c1c(OC)cccc1OC` [Example 195, 2-{5-[6-butyl-5-(2,6-dimethoxyphenyl)-2,4-dihydroxypyridin-3-yl]-1,3,4-oxadiazol-2-yl}-1-(piperidin-1-yl)ethan-1-one], under setting [1], the EC50 lay in the range of 0.01 to 10 nM.

Consider `CCCCc1nc(O)c(-c2nnc(CC(=O)N3CCOCC3)o2)c(O)c1-c1c(OC)cccc1OC` [Example 196, 2-{5-[6-butyl-5-(2,6-dimethoxyphenyl)-2,4-dihydroxypyridin-3-yl]-1,3,4-oxadiazol-2-yl}-1-(morpholin-4-yl)ethan-1-one], for which the EC50 under setting [1] is 0.01 to 10 nM.

As to `CCCCNC(=O)Cc1nnc(-c2c(O)nc(CCCC)c(-c3c(OC)cccc3OC)c2O)o1` [Example 197, N-butyl-2-{5-[6-butyl-5-(2,6-dimethoxyphenyl)-2,4-dihydroxypyridin-3-yl]-1,3,4-oxadiazol-2-yl}acetamide], the 50% effective concentration (EC50) under setting [1] lay within 0.01 to 10 nM.

In the case of `CCCCCNC(=O)Cc1nnc(-c2c(O)nc(CCCC)c(-c3c(OC)cccc3OC)c2O)o1` [Example 198, 2-{5-[6-butyl-5-(2,6-dimethoxyphenyl)-2,4-dihydroxypyridin-3-yl]-1,3,4-oxadiazol-2-yl}-N-pentylacetamide], under setting [1], the EC50 lay in the range of 10 to 100 nM.

As for `CCCCc1nc(O)c(-c2nnc(CC(=O)N3CC(F)C3)o2)c(O)c1-c1c(OC)cccc1OC` [Example 199, 2-{5-[6-butyl-5-(2,6-dimethoxyphenyl)-2,4-dihydroxypyridin-3-yl]-1,3,4-oxadiazol-2-yl}-1-(3-fluoroazetidin-1-yl)ethan-1-one], the EC50 under setting [1] lay within 0.01 to 10 nM.

For `CCCCc1nc(O)c(-c2nnc(CC(=O)N3CC(F)(F)C3)o2)c(O)c1-c1c(OC)cccc1OC` [Example 200, 2-{5-[6-butyl-5-(2,6-dimethoxyphenyl)-2,4-dihydroxypyridin-3-yl]-1,3,4-oxadiazol-2-yl}-1-(3,3-difluoroazetidin-1-yl)ethan-1-one], under setting [1], the EC50 lay within 0.01 to 10 nM.

Turning to `CCCCc1nc(O)c(-c2nnc(CC(=O)Nc3nccs3)o2)c(O)c1-c1c(OC)cccc1OC` [Example 201, 2-{5-[6-butyl-5-(2,6-dimethoxyphenyl)-2,4-dihydroxypyridin-3-yl]-1,3,4-oxadiazol-2-yl}-N-(1,3-thiazol-2-yl)acetamide], the EC50 under setting [1] is 0.01 to 10 nM.

With `CCCCc1nc(O)c(-c2nc(Cc3ccc(Cl)cc3)no2)c(O)c1-c1c(OC)cccc1OC` [Example 203, 6-butyl-3-{3-[(4-chlorophenyl)methyl]-1,2,4-oxadiazol-5-yl}-5-(2,6-dimethoxyphenyl) pyridine-2,4-diol], under setting [1], the EC50 was in the range of 10 to 100 nM.

For the compound `CCCCc1nc(O)c(-c2nnc(Cc3nnc(-c4ccc(Cl)cc4)o3)o2)c(O)c1-c1c(OC)cccc1OC` [Example 205, 6-butyl-3-(5-{[5-(4-chlorophenyl)-1,3,4-oxadiazol-2-yl]methyl}-1,3,4-oxadiazol-2-yl)-5-(2,6-dimethoxyphenyl)pyridine-2,4-diol], under “read-out: Human APJ cAMP EC50 Potency range”, the EC50 fell in the range of 10 to 100 nM.

Consider `CCCCc1nc(O)c(-c2nnc(Cc3nnc(-c4ccncc4)o3)o2)c(O)c1-c1c(OC)cccc1OC` [Example 206, 6-butyl-5-(2,6-dimethoxyphenyl)-3-(5-{[5-(pyridin-4-yl)-1,3,4-oxadiazol-2-yl]methyl}-1,3,4-oxadiazol-2-yl)pyridine-2,4-diol], for which, under setting [1], the EC50 is 0.01 to 10 nM.

On to `CCCCc1nc(O)c(-c2nnc(Cc3nnc(-c4ccccn4)o3)o2)c(O)c1-c1c(OC)cccc1OC` [Example 207, 6-butyl-5-(2,6-dimethoxyphenyl)-3-(5-{[5-(pyridin-2-yl)-1,3,4-oxadiazol-2-yl]methyl}-1,3,4-oxadiazol-2-yl)pyridine-2,4-diol], for which the EC50 under setting [1] lay in the range of 0.01 to 10 nM.

With `CCCCc1nc(O)c(-c2nnc(Cc3nnc(-c4ccccc4Cl)o3)o2)c(O)c1-c1c(OC)cccc1OC` [Example 208, 6-butyl-3-(5-{[5-(2-chlorophenyl)-1,3,4-oxadiazol-2-yl]methyl}-1,3,4-oxadiazol-2-yl)-5-(2,6-dimethoxyphenyl) pyridine-2,4-diol], the EC50 under setting [1] lay within 0.01 to 10 nM.

Take `CCCCc1nc(O)c(-c2nnc(Cc3nnc(Cc4ccccc4)o3)o2)c(O)c1-c1c(OC)cccc1OC` [Example 209, 3-{5-[(5-benzyl-1,3,4-oxadiazol-2-yl)methyl]-1,3,4-oxadiazol-2-yl}-6-butyl-5-(2,6-dimethoxyphenyl) pyridine-2,4-diol]: the EC50 under setting [1] was 0.01 to 10 nM.

(Values after patent US10336739B2, “4-hydroxy-3-(heteroaryl)pyridine-2-one APJ agonists” (BRISTOL-MYERS SQUIBB COMPANY, priority 2015, dated 2019).)
